Target: Tumour suppressor p53/oncoprotein Mdm2 (Homo sapiens, UniProt P04637+Q00987)
Assay: Inhibitory activity against MDM2 (murine double minute-2 gene) binding to p53
Format: protein assay

Chain of Tumour suppressor p53/oncoprotein Mdm2 (P04637 whole entry): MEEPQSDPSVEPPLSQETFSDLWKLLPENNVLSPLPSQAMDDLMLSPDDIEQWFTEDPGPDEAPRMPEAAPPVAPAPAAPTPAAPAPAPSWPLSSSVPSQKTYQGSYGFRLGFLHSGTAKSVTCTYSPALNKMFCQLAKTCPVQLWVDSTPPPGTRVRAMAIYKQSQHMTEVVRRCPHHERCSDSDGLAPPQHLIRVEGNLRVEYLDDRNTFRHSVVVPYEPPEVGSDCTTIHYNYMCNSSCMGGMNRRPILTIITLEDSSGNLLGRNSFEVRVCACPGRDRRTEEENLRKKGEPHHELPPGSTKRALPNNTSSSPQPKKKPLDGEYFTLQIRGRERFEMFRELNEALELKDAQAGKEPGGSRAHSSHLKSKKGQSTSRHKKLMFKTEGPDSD
Chain of Tumour suppressor p53/oncoprotein Mdm2 (Q00987 whole entry): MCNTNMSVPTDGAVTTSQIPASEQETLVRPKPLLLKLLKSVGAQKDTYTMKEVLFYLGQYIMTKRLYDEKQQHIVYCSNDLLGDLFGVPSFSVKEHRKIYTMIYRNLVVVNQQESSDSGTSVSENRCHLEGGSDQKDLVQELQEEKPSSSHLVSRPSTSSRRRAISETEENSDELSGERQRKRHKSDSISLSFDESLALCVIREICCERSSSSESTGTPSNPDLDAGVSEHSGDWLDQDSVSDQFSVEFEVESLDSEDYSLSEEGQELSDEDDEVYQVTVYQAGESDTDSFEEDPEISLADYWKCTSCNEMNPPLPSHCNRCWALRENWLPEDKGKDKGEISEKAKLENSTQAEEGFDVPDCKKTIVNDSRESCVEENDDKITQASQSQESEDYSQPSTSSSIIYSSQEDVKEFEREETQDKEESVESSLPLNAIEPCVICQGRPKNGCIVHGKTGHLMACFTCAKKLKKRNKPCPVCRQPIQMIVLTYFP

- IC50: 30 µM
SMILES: CC(C)Oc1ccc(C(=O)NS(=O)(=O)c2ccc(NN=C3C(=O)N(c4ccccc4)N(c4ccccc4)C3=O)cc2)cc1

Reference: ChEMBL document CHEMBL1140309, “p53 Activation by small molecules: application in oncology” (J Med Chem, 2005)
